Two compounds from patent US12285395B2, “Pharmaceutical composition for preventing or treating allodynia caused by anticancer agents” (UNIVERSITY-INDUSTRY COOPERATION GROUP OF KYUNG HEE …, priority 2018, dated 2025) can be followed below.

The test system of data set [1] is oxaliplatin-induced cold allodynia. In words: Acetone drop test, oxaliplatin-induced cold allodynia, intraperitoneal administration. Format: in vivo, Sprague Dawley (SD) rats. How it is done: (§1) Cinnamic acid (trans-cinnamic acid, Wako Pure Chemical Industries, Osaka, Japan) and cinnamaldehyde (Wako Pure Chemical Industries, Osaka, Japan) were dissolved in 10% dimethyl sulfoxide (DMSO, Sigma) (adjusted to pH 7 with 2 M HCl and 5 M NaOH) and 1% Tween 20 (Sigma), respectively. The final volume of 10% DMSO and 1% Tween 20 used in the experiment was […] rat. Cinnamic acid and cinnamaldehyde (10 mg/kg, 20 mg/kg, and 40 mg/kg) (i.p.) at different concentrations were administered to rats with cold allodynia and mechanical allodynia.
(§2) Seven-week-old male Sprague Dawley (SD) rats (180 g to 210 g, 95 rats total, Young Bio, Gyeonggi, Korea) were fed freely with feed and water in cages. The room temperature was maintained at 23±2° C. and a 12 h/12 h contrast cycle was maintained. All procedures described in the present disclosure were approved by the Animal Care and Use Committee of Kyunghee University (KHUASP[SE]-18-153) and followed the guidelines of the International Pain Research Association.
(§3) In order to measure cold allodynia and mechanical allodynia, according to a previous method (Flatters, S J; Bennett, G J Ethosuximide reverses paclitaxel- and vincristine-induced painful peripheral neuropathy. Pain 2004, 109, 150-161), an acetone drop test and a von Frey filament test (up-down method, Linton Instrumentation, Norfolk, UK) were performed, respectively. The rats were trained for one week before the start of the experiment to adapt to the touch and the experimental procedure. The rats were stabilized for 30 min before testing in a clear plastic box (20 cm×20 cm×14 cm) with a wire mesh bottom, while not recognizing the injection of oxaliplatin and other drugs.
Acetone was dripped 5 times on the right hind paw, and the total frequency of licking and shaking of the soles was measured as an average per time.
(§4) For the mechanical allodynia test, paw withdrawal thresholds were measured in the right hind paw using a von Frey filament. Dixon's up-down method and Chaplan's calculation method were used, and a withdrawal threshold of 15 g was measured as a cut-off. In order to confirm the effects of cinnamaldehyde and cinnamic acid at different concentrations over time, the behavioral experiment was performed before injection of cinnamic acid and cinnamaldehyde (time point of 0 min) and at time points of 30 min, 60 min, and 120 min after injection.
(§5) Oxaliplatin (Wako Pure Chemical Industries, Osaka, Japan) was dissolved in a 5% glucose solution at a concentration of 2 mg/mL and injected intraperitoneally at a dose of 6 mg/kg. The same volume of 5% glucose solution (i.p.) was administered to a control.
(§6) All data are expressed as mean±S.E.M. (Standard error of the mean). The data in FIG. 4 was analyzed by a paired t-test (FIGS. 4A and 4B) or an unpaired t-test (FIG. 4C). The data in FIGS. 5 and 6 were expressed as mean±S.E.M. and analyzed by a Bonferroni post-test after one-way ANOVA to evaluate a statistical difference between groups. The data in FIG. 7A were analyzed using Dunnett's multiple comparisons test after two-way ANOVA. The 95% reliability was considered to be statistically significant.

Data set [2] has as its system oxaliplatin-induced mechanical allodynia. Kind of data set: von Frey filament test (up-down method), oxaliplatin-induced mechanical allodynia, intraperitoneal administration. The data set is classed as in vivo, Sprague Dawley (SD) rats. How it is done:
as §1, §2, §3, §4, §5, §6

Data set [3] concerns spinal WDR neurons. In words: In vivo extracellular recording of spinal WDR neurons after oxaliplatin. Also on record: species or system Sprague Dawley (SD) rats. Particulars: after oxaliplatin 6 mg/kg i.p. vs 5% glucose control (FIGS. 4C to 4F). How it is done:
as §2
Oxaliplatin (Wako Pure Chemical Industries, Osaka, Japan) was dissolved in a 5% glucose solution at a concentration of 2 mg/mL and injected intraperitoneally at a dose of 6 mg/kg. The same volume of 5% glucose solution (i.p.) was administered to a control. […]
All data are expressed as mean±S.E.M. (Standard error of the mean). The data in FIG. 4 was analyzed by a paired t-test (FIGS. 4A and 4B) or an unpaired t-test (FIG. 4C). The data in FIGS. 5 and 6 were expressed as mean±S.E.M. and analyzed by a Bonferroni post-test after one-way ANOVA to evaluate a statistical difference between groups. The data in FIG. 7A were analyzed using Dunnett's multiple comparisons test after two-way ANOVA. […]

On to `O=C1[O][Pt]2([NH][C@@H]3CCCC[C@H]3[NH]2)[O]C1=O` [oxaliplatin, reference compound], for which the “induction of cold allodynia (acetone drop)” value in data set [1] (oxaliplatin 6 mg/kg i.p. single injection, day 4, p<0.001 vs before (FIG. 4A)) is listed as “significantly induced”. Also, the “induction of mechanical allodynia (von Frey)” value in data set [2] (oxaliplatin 6 mg/kg i.p. single injection, day 4, p<0.001 vs before (FIG. 4B)) is “significantly induced”. Further, the “number of spike responses of WDR neurons to mechanical (brush, press, pinch) and cold (acetone drop) stimulations” value in data set [3] is “significantly increased”.

As to `O=CC=Cc1ccccc1` [cinnamaldehyde, reference compound], the “effect on oxaliplatin-induced cold allodynia” value in data set [1] (all three doses 10, 20 and 40 mg/kg i.p., 30, 60, 120 min after injection (FIG. 5A, FIG. 6)) is recorded as “did not have relief effects”. The “effect on oxaliplatin-induced mechanical allodynia” value in data set [2] (10, 20 and 40 mg/kg i.p., 30, 60, 120 min after injection (FIG. 5B, FIG. 6)) is on record as “did not have relief effects”.
